Experimental data as given in EP1614683B1, “Indazole compounds and pharmaceutical compositions for inhibiting protein kinases, and methods for their use” (priority 1999, dated 2001).
Where two headings read alike, the source gives them in different places.

Tests used:
LCK tyrosine kinase = LCK tyrosine kinase (Homo sapiens, UniProt P06239, C224D/P223M); assay: LCK spectrophotometric assay; format: biochemical
Procedure: The spectrophotometric assay was carried out as described above for VEGF-R2, except for the following changes in concentration: LCK = 60 nM, MgCl2 = 0 mM, poly(E4Y1) = 20 mM.

[1] = test system: human umbilical vein endothelial cells (HUVEC); assay: HUVEC proliferation assay (VEGF-stimulated, MTT); format: cell-based; conditions: for IC50: Homo sapiens, HUVEC, Table 1
Procedure: This assay determines the ability of a test compound to inhibit the growth factor-stimulated proliferation of human umbilical vein endothelial cells ("HUVEC"). HUVEC cells (passage 3-4, Clonetics, Corp.) were thawed into EGM2 culture medium (Clonetics Corp) in T75 flasks. Fresh EGM2 medium was added to the flasks 24 hours later. Four or five days later, cells were exposed to another culture medium (F12K medium supplemented with 10% fetal bovine serum (FBS), 60 µg/mL endothelial cell growth supplement (ECGS), and 0.1 mg/mL heparin). Exponentially-growing HUVEC cells were used in experiments thereafter. Ten to twelve thousand HUVEC cells were plated in 96-well dishes in 100 µl of rich, culture medium (described above). The cells were allowed to attach for 24 hours in this medium. The medium was then removed by aspiration and 105 µl of starvation media (F12K+1% FBS) was added to each well. After 24 hours, 15 µl of test agent dissolved in 1% DMSO in starvation medium or this vehicle alone was added into each treatment well; the final DMSO concentration was 0.1%. One hour later, 30 µl of VEGF (30 ng/mL) in starvation media was added to all wells except those containing untreated controls; the final VEGF concentration was 6 ng/mL. Cellular proliferation was quantified 72 hours later by MTT dye reduction, at which time cells were exposed for 4 hours MTT (Promega Corp.).

human FGF-R1 = human FGF-R1 (Homo sapiens, UniProt P11362, C488A/C584S/L457V); assay: FGF-R spectrophotometric assay; format: biochemical
Procedure: The spectrophotometric assay was carried out as described above for VEGF-R2, except for the following changes in concentration: FGF-R = 50 nM, ATP = 2 mM, and poly(E4Y1) =15 mM.

[2] = mouse, in vivo, pH 2.3
[3] = Table 1, compound concentration 1 µM, read-out: Lck-P* (% inhibition)
[4] = Table 1, compound concentration 1 µM, read-out: FGF-P* (% inhibition)
[5] = + albumin, read-out: HUVEC + albumin IC50
[6] = read-out: Lck-P* (% inhibition)

Chain of human FGF-R1 (P11362 456-766 L457V/C488A/C584S): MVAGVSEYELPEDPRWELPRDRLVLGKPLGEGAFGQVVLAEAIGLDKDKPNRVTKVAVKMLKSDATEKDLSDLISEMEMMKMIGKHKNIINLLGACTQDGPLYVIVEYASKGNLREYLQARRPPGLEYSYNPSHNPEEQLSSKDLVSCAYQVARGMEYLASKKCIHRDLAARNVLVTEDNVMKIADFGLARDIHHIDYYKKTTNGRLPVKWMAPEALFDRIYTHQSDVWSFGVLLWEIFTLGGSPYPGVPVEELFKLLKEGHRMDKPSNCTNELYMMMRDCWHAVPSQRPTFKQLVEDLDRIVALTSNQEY
Chain of LCK tyrosine kinase (P06239 223-509 P223M/C224D): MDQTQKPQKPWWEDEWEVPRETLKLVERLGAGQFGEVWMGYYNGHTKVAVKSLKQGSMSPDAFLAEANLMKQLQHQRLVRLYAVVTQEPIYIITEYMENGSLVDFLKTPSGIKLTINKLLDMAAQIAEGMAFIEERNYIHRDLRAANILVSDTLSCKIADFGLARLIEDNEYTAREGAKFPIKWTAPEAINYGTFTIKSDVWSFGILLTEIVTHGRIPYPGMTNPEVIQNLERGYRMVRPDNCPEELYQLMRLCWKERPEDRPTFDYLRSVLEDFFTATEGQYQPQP

CN(c1cccc(NC(=O)c2cccc(C(F)(F)F)c2)c1)c1ccc2c(/C=C/c3ccc4c(c3)OCO4)n[nH]c2c1 [16(d), N-(3-{[3-(2-Benzo[1,3]dioxol-5-yl-vinyl)-1H-indazol-6-yl]-methyl-amino}-phenyl)-3-trifluoromethyl-benzamide]
inhibition at 1 µM (LCK tyrosine kinase; [3]): 33%
IC50 ([1]; read-out: HUVEC IC50): 11 nM
inhibition at 1 µM (human FGF-R1; [4]): 90%

COc1cc(C(=O)Nc2cccc(C(=O)c3ccc4c(/C=C/c5ccccn5)n[nH]c4c3)c2)cc(Cl)n1 [Reference Example 41(u), 6-[3-((2-chloro-6-methoxypyridin-4-yl)carboxamido)benzoyl]-3-E-[2-(pyridin-2-yl)ethenyl]-1H-indazole]
inhibition at 1 µM (LCK tyrosine kinase; [3]): 54%
IC50 [1, 5]: 7.9 nM
inhibition at 1 µM (human FGF-R1; [4]): 74%

O=C(NNC(=O)c1ccccc1Sc1ccc2c(/C=C/c3ccccn3)n[nH]c2c1)c1cccs1 [Reference Example 35(m), 6-[2-((Thien-2-ylhydrazido)carbonyl)phenylsulfanyl]-3-E-[2-(pyridin-2-yl)ethenyl]-1H-indazole]
inhibition at 1 µM (LCK tyrosine kinase; [3]): 61%
IC50 [1, 5]: 35 nM
inhibition at 1 µM (human FGF-R1; [4]): 82%

O=C(Nc1cccc(Oc2ccc3c(/C=C/c4ccccc4)n[nH]c3c2)c1)c1cccc2[nH]ccc12 [Reference Example 30(d), 6-[3-(indol-4-ylcarboxamido)phenoxy]-3-E-stryrylindazole]
IC50 [1, 5]: 3.8 nM

C=CCOc1cc(-c2ccc3c(/C=C/c4ccc(OC)c(OC)c4)n[nH]c3c2)ccc1O [1(c), 3-[E-2-(3,4-Dimethoxy-phenyl)vinyl]-6-(3-allyloxy-4-hydroxyphenyl)-1H-indazole]
inhibition at 1 µM (LCK tyrosine kinase; [6]): 46%

CC(=O)N1CCC(C(=O)Nc2cccc(Oc3ccc4c(/C=C/c5ccc(Cl)cc5)n[nH]c4c3)c2)CC1 [Reference Example 30(b), 6-[3-(1-acetylpiperidin-4-ylcarboxamido)phenoxy]-3-E-[2-(4-chlorophenyl)ethenyl]-1H-indazole]
IC50 ([1]; read-out: HUVEC IC50): 90 nM

CNC(=O)c1cccc2[nH]c(-c3n[nH]c4cc(-c5ccc(O)cc5OC)ccc34)nc12 [Reference Example 25(j), 3-(4-methylcarbamoyl-1H-benzoimidazol-2-yl)-6-(2-methoxy-4-hydroxy-phenyl)-1H-indazole]
inhibition at 1 µM (human FGF-R1; read-out: FGF* (% inhibition)): 70%

COc1cc(-c2ccc3c(-c4ccccc4)n[nH]c3c2)ccc1O [2(b), 3-phenyl-6-(3-methoxy-4-hydroxy-phenyl)-1H-indazole]
Ki (human FGF-R1; read-out: FGF-P* (Ki, cell in µM), Table 1): 228 µM

O=C(Nc1cccc(Oc2ccc3c(/C=C/c4ccco4)n[nH]c3c2)c1)c1ccccc1 [Reference Example 30(c), 6-[3-benzamidophenoxy]-3-[2-(fur-2-yl)ethenyl]-1H-indazole]
inhibition at 1 µM (LCK tyrosine kinase; [3]): 44%
IC50 [1, 5]: 21 nM
IC50 ([1]; read-out: HUVEC IC50): 2.5 nM
inhibition at 1 µM (human FGF-R1; [4]): 82%

CN(C)c1cccc(C(=O)Nc2cccc(N(C)c3ccc4c(/C=C/c5ccc6c(c5)OCO6)n[nH]c4c3)c2)c1 [16(c), N-(3-{[3-(2-Benzo[1,3]dioxol-5-yl-vinyl)-1H-indazol-6-yl]-methyl-amino}-phenyl)-3-dimethylamino-benzamide]
IC50 ([1]; read-out: HUVEC IC50): 100 to 1000 nM

O=C(Nc1cccc(Nc2ccc3c(/C=C/c4ccccc4)n[nH]c3c2)c1)c1ccccc1 [Example 13, N-[3-(3-Styryl-1H-indazol-6-ylamino)-phenyl)-benzamide]
inhibition at 1 µM (LCK tyrosine kinase; [6]): 61%
IC50 [1, 5]: 28 nM
IC50 ([1]; read-out: HUVEC IC50): 3.9 nM
inhibition at 1 µM (human FGF-R1; read-out: FGF-P* (% inhibition)): 74%

O=C(Nc1cccc(C(=O)c2ccc3c(/C=C/c4ccccc4)n[nH]c3c2)c1)OCc1ccccc1 [19(c), [3-(3-Styryl-1H-indazole-6-carbonyl)-phenyl]-carbamic acid benzyl ester]
inhibition at 1 µM (LCK tyrosine kinase; [3]): 50%
IC50 ([1]; read-out: HUVEC IC50): 17 nM
inhibition at 1 µM (human FGF-R1; [4]): 68%

NC(=O)c1ccccc1Sc1ccc2c(/C=C/c3ccccn3)n[nH]c2c1 [H-X1]
% inhibition of the proliferation of HUVEC, 0.5 nM ([1]; Library Table II, Y = S (reference Example), nominal concentration 0.5 nM, crude library reaction mixtures, >50% considered significant): 9%
% inhibition of the proliferation of HUVEC, 2 nM ([1]; Library Table II, Y = S (reference Example), nominal concentration 2 nM, crude library reaction mixtures, >50% considered significant): 30%

C=C(c1cccc(NC(=O)OCc2ccccc2)c1)c1ccc2c(/C=C/c3ccccc3)n[nH]c2c1 [22(c)]
IC50 ([1]; read-out: HUVEC IC50): 38 nM

COc1cc(O)ccc1-c1ccc2c(-c3nc4ccccc4[nH]3)n[nH]c2c1 [24(d), 3-1H-Benzoimidazol-2-yl-6-(4-hydroxy-2-methoxyphenyl)-1H-indazole]
inhibition at 1 µM (LCK tyrosine kinase; read-out: Lck* (% inhibition)): 51%
inhibition at 1 µM (human FGF-R1; read-out: FGF* (% inhibition)): 66%

CC(C)(C)c1ccc(C(=O)Nc2cccc(C(=O)c3ccc4c(/C=C/c5ccccn5)n[nH]c4c3)c2)cc1 [Reference Example 41(s), 6-[3-(4-t-butylbenzamido)benzoyl}-3-E-[2-(pyridin-2-yl)ethenyl]-1H-indazole]
inhibition at 1 µM (LCK tyrosine kinase; [3]): 53%
inhibition at 1 µM (human FGF-R1; [4]): 86%

COc1cc(O)ccc1-c1ccc2c(-c3nc4c(SCCO)cccc4[nH]3)n[nH]c2c1 [Reference Example 25(f), 3-[4-(2-hydroxyethylsulfanyl)-1H-benzoimidazol-2-yl)-6-(2-methoxy-4-hydroxyphenyl)-1H-indazole]
inhibition at 1 µM (LCK tyrosine kinase; read-out: Lck* (% inhibition)): 58%
inhibition at 1 µM (human FGF-R1; read-out: FGF* (% inhibition)): 56%

CN(c1cccc(NC(=O)c2ccc(O)c(C(C)(C)C)c2)c1)c1ccc2c(/C=C/c3ccc4c(c3)OCO4)n[nH]c2c1 [16(f)]
IC50 ([1]; read-out: HUVEC IC50): > 30 nM

O=C(Nc1cccc(Sc2ccc3c(/C=C/c4ccccc4)n[nH]c3c2)c1)c1ccccc1 [20(b), 6-(3-(Benzoylamido)-phenylsulfanyl)-3-styryl-1H-indazole]
inhibition at 1 µM (LCK tyrosine kinase; [3]): 23%
IC50 ([1]; read-out: HUVEC IC50): 8.2 nM
inhibition at 1 µM (human FGF-R1; [4]): 28%

Cc1cncc(C(=O)Nc2cccc(C(=O)c3ccc4c(/C=C/c5ccccc5)n[nH]c4c3)c2)c1 [19(e), 6-[3-(5-methylpyridin-3-ylcarboxamide)benzoyl]-3-E-styryl-1H-indazole]
IC50 ([1]; read-out: HUVEC IC50): > 300 nM

O=C(NC1CC1)c1ccccc1Sc1ccc2c(/C=C/c3ccccn3)n[nH]c2c1 [33 (e)]
AUCleast ([2]; ip, 25 mg/kg): 14323 ng·h/mL
T1/2 ([2]; ip, 25 mg/kg): 1.0 h
AUCleast ([2]; po, 50 mg/kg): 13290 ng·h/mL
T1/2 ([2]; po, 50 mg/kg): 0.7 h

O=C(Nc1cccc(C(=O)c2ccc3c(-c4nc5cccnc5[nH]4)n[nH]c3c2)c1)c1ccccc1 [42 (d)]
AUCleast ([2]; ip, 25 mg/kg): 1774 ng·h/mL
T1/2 ([2]; ip, 25 mg/kg): 1.4 h
AUCleast ([2]; po, 50 mg/kg): 46 ng·h/mL

CC(C)=CC(=O)Nc1cccc(C(=O)c2ccc3c(/C=C/c4ccccn4)n[nH]c3c2)c1 [41 (dd)]
Cmin (7 hr conc.) ([2]; po, 25 mg/kg, 7 h): 1 ng/mL
AUCleast ([2]; po, 25 mg/kg): 654 ng·h/mL
T1/2 ([2]; po, 25 mg/kg): 0.8 h

Oc1cccc(Oc2ccc3c(/C=C/c4ccccc4)n[nH]c3c2)c1 [9(a), 3-(E-styryl)-6-[3-hydroxyphenoxy]-1H-indazole]
IC50 ([1]; read-out: HUVEC IC50): 870 nM

Cn1ccnc1/C=N/NC(=O)c1ccccc1Sc1ccc2c(/C=C/c3ccccn3)n[nH]c2c1 [36 (a)]
AUCleast ([2]; po, 25 mg/kg): 605 ng·h/mL
T1/2 ([2]; po, 25 mg/kg): 1.5 h

O=C(NCc1ccccc1F)c1ccccc1Sc1ccc2c(/C=C/c3ccccn3)n[nH]c2c1 [35 (f)]
AUCleast ([2]; ip, 25 mg/kg): 397 ng·h/mL
T1/2 ([2]; ip, 25 mg/kg): 3.8 h
AUCleast ([2]; po, 50 mg/kg): 358 ng·h/mL
T1/2 ([2]; po, 50 mg/kg): 3.6 h

Cc1cc(C(=O)Nc2cc(Nc3ccc4c(/C=C/c5ccccn5)n[nH]c4c3)ccc2C)n(C)n1 [49 (b)]
AUCleast ([2]; po, 25 mg/kg): 33750 ng·h/mL

CCn1nc(C)cc1C(=O)Nc1cccc(Oc2ccc3c(/C=C/c4ccccc4)n[nH]c3c2)c1 [Reference Example 30(e), 6-[3-((1-Ethyl-3-methyl-1H-pyrazol-5-yl)carboxamido)phenoxy]-3-E-stryrylindazole]
inhibition at 1 µM (LCK tyrosine kinase; [3]): 62%
IC50 [1, 5]: 29 nM
inhibition at 1 µM (human FGF-R1; [4]): 92%

Cc1cnc(C(=O)Nc2cccc(N(C)c3ccc4c(/C=C/c5ccccc5)n[nH]c4c3)c2)s1 [12(d), 5-Methyl-thiazole-2-carboxylic acid {3-[methyl-(3-styryl-1H-indazol-6-yl)-amino]-phenyl)-amide]
inhibition at 1 µM (LCK tyrosine kinase; [3]): 31%
IC50 ([1]; read-out: HUVEC IC50): 8.1 nM
inhibition at 1 µM (human FGF-R1; [4]): 61%

O=C(Nc1cccc(C(=O)c2ccc3c(/C=C/c4ccccn4)n[nH]c3c2)c1)c1ccccc1 [42 (a)]
AUCleast ([2]; ip, 25 mg/kg): 19899 ng·h/mL
T1/2 ([2]; ip, 25 mg/kg): 5.0 h
AUCleast ([2]; po, 50 mg/kg): 8384 ng·h/mL
T1/2 ([2]; po, 50 mg/kg): 2.0 h

O=C(NNC(=O)c1ccccc1Sc1ccc2c(/C=C/c3ccccn3)n[nH]c2c1)c1cccs1 [35 (m)]
AUCleast ([2]; ip, 25 mg/kg): 226 ng·h/mL
T1/2 ([2]; ip, 25 mg/kg): 4.0 h
Cmin (7 hr conc.) ([2]; po, 25 mg/kg, 420 min): 0 ng/mL
AUCleast ([2]; po, 25 mg/kg): 10 ng·h/mL
